Experimental findings from patent US20240050385A1, “METHODS OF TREATING LEPTOMENINGEAL METASTASIS” (MEMORIAL SLOAN-KETTERING CANCER CENTER, priority 2020, published 2024) are described below.

In one assay the test system is MDA231-LeptoM cells. The assay is described as follows: In vivo leptomeningeal metastasis assay, MDA231-LeptoM model, intracisternal chelator treatment. Set-up: species or system mouse. The settings on record: for Median Survival: every 3 days; for [Fe]: total iron in CSF. Here is the method:
FIG. 15A-15G. LCN2 transports iron to support cancer cell growth. (A) Tumor growth in mice injected with MDA231-LeptoM cells expressing shCtl or shLCN2. Treatment with either vehicle or 5 mg/mL holo-transferrin (diferric [Tf]) began on day 1 and continued every third day for a total of 7 doses. Left: Histogram represents in vivo BLI imaging post-inoculation at day 21. n=8-10 per group in each of two independent experiments. Right: Representative BLI images. ** indicates p<0.01 (unpaired t test). Data represent mean±SEM. (B) Kaplan-Meier survival curve of LeptoM groups from (A). sh1+Veh vs sh1+Tf, p<0.0001. sh2+Veh vs sh2+Tf, p<0.0001. (C) Soluble iron concentration from macrophages collected from CSF in lipopolysaccharide (LPS)-stimulated, LeptoM or LeptoM-shLCN2 (sh1 and sh2) mouse model at day 14. Soluble iron was measured by mass spectroscopy. n=4 per group. ** indicates p<0.01, *** indicates p<0.001, **** indicates p<0.0001 (unpaired t test). Data represent mean±SEM. (D and E) Phagocytosis (D) and reactive oxygen species (ROS) generation (E) in CSF-derived macrophages by flow cytometric analysis after LeptoM (LLC model), shLCN2 LPS, or vehicle (Ctl) treatment. Phagocytosis detected by FITC-labeled E. coli. CellROX Green^+ cells represent percent of live cells with ROS. n=12-15 (Ctl), n=4-5 (LPS), n=11-18 (LeptoM), n=8 (shLCN2). NS=not significant, * indicates p<0.05, ** indicates p<0.01, **** indicates p<0.0001 (unpaired t test). Data represent mean±SEM in two independent experiments. (F) Tumor growth in MDA231-LeptoM model after chelator treatment: deferoxamine (DFO), D-penicillamine (D-Pen) on […] (early) or day 7 (late); see also FIG. 16. Left: in vivo BLI imaging in day 28 post-inoculation. n=8-10 per group in each of two independent experiments. Right: Representative BLI images. **** indicates p<0.0001. Data represent mean±SEM. (G) Kaplan-Meier survival curve of mice treated in (F). p<0.0001.
(§1) FIG. 16A-16L. Iron chelator treatment reduces CSF iron. (A) Experimental scheme. Mice were inoculated with 2×10^3 cells intrathecally on day 0. Treatment with either vehicle, DFO, or D-pen was commenced on either day 1 or day 7 and continued every third day for a total of 7 doses. (B) Chelators delivered intrathecally. DFO, Deferoxamine. D-Pen, D-Penicillamine. (C-F) Intracellular iron (C and E) and viability (D and F) of PC9-LeptoM cells and MDA231-LeptoM cells after treatment with chelators in different concentrations (0 μM, 1 μM, 10 μM and 100 μM). n=3-4 per group in each of two independent experiments. * indicates p<0.05, ** indicates p<0.01, ***indicates p<0.001, **** indicates p<0.0001 (unpaired t test). Data represent mean±SEM. (G) Growth of PC9-LeptoM tumor after treatment indicated in (A). Left: in vivo BLI imaging in day 28 post-inoculation. n=8-10 per group in each of two independent experiments. Right: Representative BLI images. **** indicates p<0.0001. Data represent mean±SEM. (H) Kaplan-Meier survival curve from (C) and (E). p<0.0001. (I and J) Total iron concentration measured in CSF samples of mice with treatment of chelators in PC9-LeptoM Model (I) in MDA231-LeptoM model (J). NS=not significant, * indicates p<0.05, ** indicates p<0.01 (unpaired t test). Data represent mean±SEM. (K and L) Immune cell composition in CSF of LLC-LeptoM model with the treatment of vehicle, DFO, or D-pen at day 10. n=6 per group. NS=not significant, * indicates p<0.05, ** indicates p<0.01 (unpaired t test). Data represent mean±SEM.
In vivo leptomeningeal metastasis assays. To model leptomeningeal metastasis with a known consistent disease burden, 2×10^3 PC9, 2×10^3 MDA231, or 1×10^3 LLC Parental or LeptoM cells suspended in 10 μl PBS were injected into the cisterna magna of anesthetized mice. This procedure was tolerated well by the mice. Tumor progression was monitored by bioluminescence imaging (BLI) every 7 days after tumor cell inoculation, and mouse condition was monitored daily. […]

The subject of a further assay is LLC-LeptoM model. The assay is described as follows: Immune cell composition in CSF of LLC-LeptoM model (flow cytometry). The settings on record: day 10, in words. Type of assay: in vivo, mouse.
Source text: as §1
Flow cytometry analysis and sorting. For cytometric bead assay, CSF from control mice or mice bearing LLC LeptoM cells was collected on day 14 as described above. Levels of cytokines were measured using LEGENDplex Mouse Inflammation Panel (13-plex; 740446, Biolegend) as recommended by manufacturer in technical duplicates. Data was processed using LEGENDPlex Software (Biolegend). For flow cytometric analysis of CSF and meningeal cells, mice were transcardially perfused though left ventricle with saline using standard procedures (16). Then, CSF was collected by cisternal tap as described above. Next, cranial vault was removed, brain was collected and basilar meninges were washed with PBS. Surface of the brain and ventricular spaces were washed with PBS. CSF, cavity and brain washouts were pooled and processed for staining. For analysis of peripheral leukocytes, blood was collected from deeply anesthesized mice using cardiac puncture. Spleen was collected from perfused animals, minced, and mechanically dissociated using GentleMACS (Miltenyi Biotec). […] Phagocytic activity and respiratory burst were analyzed using E. coli Phagocytosis Assay Kit (FITC conjugate, Cayman Chemicals, 601370) and CellRox Green Flow Cytometry (Thermo Fisher, C10492), as recommended. […]

“Also recorded” adds a separate entry of the source. Counter-ions that a name gives are not always drawn.

With `CC(C)(S)[C@@H](N)C(=O)O` [D-Pen, D-penicillamine], the “Median Survival” value with MDA231-LeptoM cells (MDA231-LeptoM model, intracisternal, start day not given) came out at 28 ± 7 days. Further, the “[Fe]” value in the assay with MDA231-LeptoM cells (MDA231-LeptoM model, start day not given) stood at 39.44 ± 2.43 µM. Also, in the assay with LLC-LeptoM model, the “number (percentage) of CSF macrophages” value was “slightly reduced”; the “numbers of neutrophils, T cells and monocytes in CSF” value was “not affected”.

With `CC(=O)N(O)CCCCCNC(=O)CCC(=O)N(O)CCCCCNC(=O)CCC(=O)N(O)CCCCCN` [DFO, Deferoxamine mesylate], the “iron concentration in the CSF compared to control mice” value in the assay on MDA231-LeptoM cells (MDA231-LeptoM model, day 28, in words) is “profoundly decreased; also recorded: reduced CSF iron concentration to that of non-LeptoM control mice”. For the same compound, the “[Fe]” value in the assay with MDA231-LeptoM cells (MDA231-LeptoM model, early (day 0)) was determined as 10.55 ± 1.31 µM; in the assay with MDA231-LeptoM cells (MDA231-LeptoM model, late (day 7)), 9.19 ± 0.98 µM. Moreover, the “Median Survival” value in the assay on MDA231-LeptoM cells (MDA231-LeptoM model, treatment begun early (day 0)) was 54.5 ± 5.5 days; in the assay on MDA231-LeptoM cells (MDA231-LeptoM model, treatment begun late (day 7)) it was 38 ± 7 days. Also, in the assay on MDA231-LeptoM cells (MDA231 mouse model, both early and late treatment groups, in words), the “dissemination of cancer cells over the spinal cord” value is recorded as “impaired dissemination”. The “survival compared with vehicle control” value with MDA231-LeptoM cells (MDA231 mouse model, in words) is on record as “conferred a survival benefit; also recorded: significant survival benefit”. Besides, the “number (percentage) of CSF macrophages” value in the assay with LLC-LeptoM model was “slightly reduced; also recorded: only mildly reduced”. The “numbers of neutrophils, T cells and monocytes in CSF” value with LLC-LeptoM model was “not affected”.
